Data reported in BindingDB's records for doi:10.1021/acsmedchemlett.7b00157 (Novartis Institutes For Biomedical Research, 2017).

target: T1, Prostaglandin D2 receptor 2 (Homo sapiens, UniProt Q9Y5Y4); test: Antagonist activity at DP2 receptor in human whole assessed as inhibition of DK-PGD2-induced eosinophils shape change preincubated for 5 mins followed by DK-PGD2 addition measured after 5 mins by flow cytometry
T1 sequence (Q9Y5Y4 whole entry): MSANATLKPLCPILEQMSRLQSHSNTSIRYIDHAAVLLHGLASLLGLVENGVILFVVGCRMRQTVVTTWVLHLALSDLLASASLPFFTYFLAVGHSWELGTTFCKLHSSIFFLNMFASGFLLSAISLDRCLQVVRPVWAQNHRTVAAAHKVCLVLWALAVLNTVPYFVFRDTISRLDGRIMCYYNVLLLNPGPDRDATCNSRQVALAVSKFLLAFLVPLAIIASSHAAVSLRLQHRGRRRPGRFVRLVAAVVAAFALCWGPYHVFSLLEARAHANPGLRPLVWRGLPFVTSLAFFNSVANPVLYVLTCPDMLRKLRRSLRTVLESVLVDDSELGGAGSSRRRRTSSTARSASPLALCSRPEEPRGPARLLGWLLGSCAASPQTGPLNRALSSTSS

SMILES | IC50 [nM]
CCS(=O)(=O)c1ccc(Cn2c(C)c(CC(=O)O)c3cccnc32)c(Cl)c1 | 7

target: not listed separately; test: Antagonist activity at DP2 receptor in human whole assessed as inhibition of DK-PGD2-induced eosinophils shape change preincubated for 5 mins followed by DK-PGD2 addition measured after 5 mins by flow cytometry

SMILES | IC50 [nM]
Cc1c(CC(=O)O)c2cccnc2n1Cc1ccc(S(C)(=O)=O)cc1Cl | 47
Cc1c(CC(=O)O)c2cccnc2n1Cc1ccc(S(C)(=O)=O)c(C(F)(F)F)c1 | 11
Cc1cc(S(C)(=O)=O)ccc1Cn1c(C)c(CC(=O)O)c2cccnc21 | 32
Cc1c(CC(=O)O)c2ccccc2n1Cc1ccc(S(C)(=O)=O)cc1 | 188
CCS(=O)(=O)c1ccc(Cn2c(C)c(CC(=O)O)c3cccnc32)c(C(F)(F)F)c1 | 4
Cc1c(CC(=O)O)c2cccnc2n1Cc1ccc(C(F)(F)F)cc1C(F)(F)F | 214
